Results reported in patent US7683040B2, “Intranasal formulation of rotigotine” (SRZ Properties, Inc., priority 2003, dated 2010).

Assays:
[1] = cited from earlier work
[2] = tested on: cilia; settings: cited from earlier work
[3] = in-vitro permeation assay through nasal mucosa; assay type: in vitro ADME, cattle
Excerpt: The intranasal formulation according to the present invention may preferably further contain a viscosity-enhancing substance. Glycerol and carboxymethylcellulose (CMC) are particularly useful as viscosity enhancers, but the present invention is not limited thereto. Glycerol is particularly preferred as it also has a soothing effect on the nasal mucosa. The viscosity of the intranasal formulations of the present invention should preferably be between 0.8 and 1.5 mm^2/s, most preferably around 1.2 mm^2/s. The viscosity can be determined by an Ubbelohde capillary viscosimeter with suspending ball-level for the determination of kinematic viscosity according to DIN 51562, part 1.
The pH-value of the formulation of the present invention should preferably in the range of 4.5 to 6.5, more preferably around 5.8±0.3. […] The pH value of the intranasal formulation can be adjusted during or after its preparation with a pharmaceutically acceptable acid or base. Most preferably, citric acid is used for this purpose.

[4] = (maximum) solubility in aqueous solution with α- or β-cyclodextrin, isocratic HPLC; assay type: physicochemical; settings: aqueous solution and aqueous solutions containing α- or β-cyclodextrin
Method: The concentration was determined by isocratic HPLC analysis. HPLC column LiChroCART 75×4 mm, Superspher 60 RP-select B 5 μm (Merck), column temperature: 30° C., mobile phase: water/acetonitrile/methane sulfonic acid (65/35/0.05 v/v/v), flow rate: 2 mL/min, injection volume: 50 μl, detection at 220 nm, retention time approx. 1.5 min. The concentration was determined by use of an external reference solution with known concentration.

[5] = comparative storage test in aqueous rotigotine solution with/without α-cyclodextrin; assay type: physicochemical; settings: solution of 1.6 mg/ml with α-cyclodextrin, storage at 60° C. for 8 weeks
Excerpt: The stabilizing effect of α-cyclodextrin becomes also apparent from a comparative test in an aqueous rotigotine solution.

[6] = rat, cited from earlier work

## CN1CCc2cccc3c2[C@H]1Cc1ccc(O)c(O)c1-3 [apomorphine]
[1]
  oxidation in solution: subject to rapid oxidation

## benzalkonium chloride
[2]
  ciliary toxicity: significant ciliary toxicity

## CCCN(CCc1cccs1)[C@H]1CCc2c(O)cccc2C1 [Rotigotine base, 5,6,7,8-tetrahydro-6-[propyl-[2-(2-thienyl)ethyl]amino]-1-naphthalenol]
[3]; formulation pH 4.5
  rotigotine uptake through nasal mucosa: significantly lower rotigotine uptake
[3]; formulation pH 5.8
  drug uptake through nasal mucosa: optimal drug uptake
[3]; formulation pH 6.5
  rotigotine uptake through nasal mucosa: significantly lower rotigotine uptake
[3]; glycerol in the formulation
  uptake of rotigotine through the nasal mucosa: increase the uptake
[4]
  solubility (in words): practically insoluble
[5]
  decrease in the rotigotine concentration: -0.07 mg/mL
[6]; buccal, nasal or rectal administration compared with oral dosing, solution in 1:1 PEG 400 and water
  bioavailability: improved bioavailability
[6]; compared with results described for other lipophilic drugs
  bioavailability for the nasal dosing: somewhat disappointing
